Laboratory results taken from patent US11254663B2 (BRISTOL-MYERS SQUIBB COMPANY, priority 2019, dated 2022).

Each molecule was assayed against FXR (Homo sapiens (Human), UniProt Q96RI1) (assay: transient human FXR/Gal4-luciferase reporter assay). Conditions: Gal4-hFXR fusion construct, HEK293 reporter cells; response relative to 8 μM GW-4064.
Format: cell-based
How it was run: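 Compound exposure ran overnight at 37 °C and activity was measured as luminescence with Steady-Glo reagent. The cells were a HEK293 line stably expressing firefly luciferase under five Gal4 response elements. They were transiently transfected, one night beforehand, with a plasmid encoding Gal4 DNA-binding domain fused to the human FXR ligand-binding domain.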

Chain of FXR (Q96RI1 262-486): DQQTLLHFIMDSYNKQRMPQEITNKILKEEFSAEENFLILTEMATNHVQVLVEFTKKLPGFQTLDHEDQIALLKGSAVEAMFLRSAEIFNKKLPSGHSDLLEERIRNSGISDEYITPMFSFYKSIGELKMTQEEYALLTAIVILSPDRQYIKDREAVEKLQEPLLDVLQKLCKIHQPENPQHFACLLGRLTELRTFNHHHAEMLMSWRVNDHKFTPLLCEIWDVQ

Row | SMILES | EC50 [nM]
1 | Cc1nc2ccc(-c3cccc(N(CC45CCC(c6cc(C7CC7)nn6C)(CC4)CC5)C(=O)C45CC(F)(C4)C5)c3)cc2s1 [Example 415, N-((4-(3-cyclopropyl-1-methyl-1H-pyrazol-5-yl)bicyclo[2.2.2]octan-1-yl)methyl)-3-fluoro-N-(3-(2-methylbenzo[d]thiazol-6-yl)phenyl)bicyclo[1.1.1]pentane-1-carb oxamide] | 125
2 | COc1ncc(-c2cccc(N(CC34CCC(c5ccc(C6(C#N)CC6)cc5)(CC3)OC4)C(=O)C34CC(F)(C3)C4)c2)cn1 [Example 351, N-((1-(4-(1-cyanocyclopropyl)phenyl)-2-oxabicyclo[2.2.2]octan-4-yl)methyl)-3-fluoro-N-(3-(2-methoxypyrimidin-5-yl)phenyl)bicyclo[1.1.1]pentane-1-carboxamide] | 266
3 | O=C(N(CC12CCC(c3nc(C4CC4)no3)(CC1)CC2)c1cccc(-c2ccc(NS(=O)(=O)C(F)(F)F)cc2)c1)C12CC(F)(C1)C2 [Example 267, N-((4-(3-cyclopropyl-1,2,4-oxadiazol-5-yl)bicyclo[2.2.2]octan-1-yl)methyl)-3-fluoro-N-(4′-((trifluoromethyl)sulfonamido)-[1,1′-biphenyl]-3-yl)bicyclo[1.1.1]pentane-1-carboxamide] | 46
4 | CCOc1ccc(-c2cccc(N(CC34CCC(c5noc(C6(C(F)(F)F)CC6)n5)(CC3)CC4)C(=O)C34CC(F)(C3)C4)c2)cc1 [Example 521, N-(4′-ethoxy-[1,1′-biphenyl]-3-yl)-3-fluoro-N-((4-(5-(1-(trifluoromethyl)cyclopropyl)-1,2,4-oxadiazol-3-yl)bicyclo[2.2.2]octan-1-yl)methyl)bicyclo[1.1.1]pentane-1-carboxamide] | 112
5 | O=C(N(CC12CCC(c3nc(C4CC4)no3)(CC1)CC2)c1cccc(-c2cccc(OC(F)(F)F)c2)c1)C12CC(F)(C1)C2 [Example 259, N-((4-(3-cyclopropyl-1,2,4-oxadiazol-5-yl)bicyclo[2.2.2]octan-1-yl)methyl)-3-fluoro-N-(3′-(trifluoromethoxy)-[1,1′-biphenyl]-3-yl)bicyclo[1.1.1]pentane-1-carboxamide] | 268

Second part, the molecule after the results:

Row | EC50 [nM] | SMILES
6 | 232 | Cc1nc2ccc(-c3cccc(N(CC45CCC(c6nc(C7CC7)no6)(CC4)CC5)C(=O)C4CC(F)(F)C4)c3)cc2s1 [Example 554, N-((4-(3-cyclopropyl-1,2,4-oxadiazol-5-yl)bicyclo[2.2.2]octan-1-yl)methyl)-3,3-difluoro-N-(3-(2-methylbenzo[d]thiazol-6-yl)phenyl)cyclobutane-1-carboxamide]
7 | 77 | CC(C)(F)c1nc(C23CCC(CN(C(=O)OC(C)(C)C(F)(F)F)c4cccc(-c5ccc(C6(C#N)CC6)c(F)c5)c4)(CC2)CC3)no1 [Example 591, 1,1,1-trifluoro-2-methylpropan-2-yl (4′-(1-cyanocyclopropyl)-3′-fluoro-[1,1′-biphenyl]-3-yl)((4-(5-(2-fluoropropan-2-yl)-1,2,4-oxadiazol-3-yl)bicyclo[2.2.2]octan-1-yl)methyl) carbamate]
8 | 36 | CC(C)Oc1ccc(-c2cc(N(CC34CCC(c5noc(C6(F)CC6)n5)(CC3)CC4)C(=O)NC(C)(C)C)ccc2F)cc1 [Example 586, 3-(tert-butyl)-1-(6-fluoro-4′-isopropoxy-[1,1′-biphenyl]-3-yl)-1-((4-(5-(1-fluorocyclopropyl)-1,2,4-oxadiazol-3-yl)bicyclo[2.2.2]octan-1-yl)methyl)urea]
9 | 30 | CC(C)(O)c1ccc(-c2cccc(N(CC34CCC(c5noc(C(C)(C)F)n5)(CC3)CC4)C(=O)N[C@H]3CC[C@](C)(O)CC3)c2)cc1 [Example 599, 1-((4-(5-(2-fluoropropan-2-yl)-1,2,4-oxadiazol-3-yl)bicyclo[2.2.2]octan-1-yl)methyl)-3-((trans)-4-hydroxy-4-methylcyclohexyl)-1-(4′-(2-hydroxypropan-2-yl)-[1,1′-biphenyl]-3-yl)urea]
